For experiment [1], the system named is phosphorylated 4E-BP1 Thr37/46 (p4E-BP1 Thr37/46), mTORC1 activity, PC3 cells. Nature of the experiment: mTOR target engagement assay, immunofluorescent cell-based, p4E-BP1 Thr37/46 readout (mTORC1 activity). The conditions noted are these: Homo sapiens, read-out: p4E-BP1 Thr37/46 IC50. The procedure, abridged: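 PTEN-mutant PC3 prostate cells were treated with serially diluted compound in 5% FBS F12 medium (0.25% DMSO) for ninety minutes at 37° C, glyoxal-fixed, then immunostained overnight at 4° C for p4E-BP1 Thr37/46 with an Alexa Fluor 488 secondary. IC50 came from four-parameter fits of fluorescence, DMSO-only wells defining 100%.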

In experiment [2] the test system is phosphorylated AKT Ser473 (pAKT S473), mTORC2 activity, PC3 cells. Nature of the experiment: mTOR target engagement assay, immunofluorescent cell-based, pAKT S473 readout (mTORC2 activity). To be noted: Homo sapiens. The procedure, abridged: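 After blocking, cells were stained overnight at 4 °C with anti-pAKT S473 antibody, then a fluorescent secondary; inhibition was read as reduced fluorescence intensity.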

[3] abbreviates: PC-3, PC3 cells, compound treatment ninety minutes at 37° C.

pIC50: −log10 of the molar value. Where two headings read alike, the source gives them in different places.

Take `CC(=O)c1c([C@@H]2C[C@H]3CC[C@@H](C2)N3C(=O)CO)nc2c(-c3ccc(-c4ccn(CF)n4)nc3)cnn2c1N` [Compound 1.1.87, 1-((1R,3s,5S)-3-(6-acetyl-7-amino-3-(6-(1-(fluoromethyl)-1H-pyrazol-3-yl)pyridin-3-yl)pyrazolo[1,5-a]pyrimidin-5-yl)-8-azabicyclo[3.2.1]octan-8-yl)-2-hydroxyethanone]: the pIC50 in experiment [1] (setting [3]) and in experiment [2] (setting [3]) was 7.00 to 9.00 each time.
Take `CC(=O)c1c([C@@H]2C[C@H]3CC[C@@H](C2)N3C(=O)CO)nc2c(-c3ccc(-n4ccc(C)n4)nc3)cnn2c1N` [Compound 1.1.133, 1-((1R,3s,5S)-3-(6-acetyl-7-amino-3-(6-(3-methyl-1H-pyrazol-1-yl)pyridin-3-yl)pyrazolo[1,5-a]pyrimidin-5-yl)-8-azabicyclo[3.2.1]octan-8-yl)-2-hydroxyethanone]: the values for the pIC50 in experiment [1] (setting [3]) and in experiment [2] (setting [3]) were 5.00 to 6.00 and 6.00 to 7.00, respectively.
As for `CS(=O)(=O)c1c([C@@H]2C[C@H]3CC[C@@H](C2)N3C(=O)c2nnc[nH]2)nc2c(-c3ccc(-c4ccc5c(c4)OCO5)nc3)cnn2c1N` [Compound 3.52, ((1R,3s,5S)-3-(7-amino-3-(6-(benzo[d][1,3]dioxol-5-yl)pyridin-3-yl)-6-(methylsulfonyl)pyrazolo[1,5-a]pyrimidin-5-yl)-8-azabicyclo[3.2.1]octan-8-yl)(4H-1,2,4-triazol-3-yl)methanone], the pIC50 in experiment [1] (PC-3, Table 3-1, PC3 cells) was 7.00 to 9.00; in experiment [2] (PC-3, Table 3-1, PC3 cells), 7.00 to 9.00.
As to `COc1ccc(-c2ccc(-c3cnn4c(N)c(S(C)(=O)=O)c([C@@H]5C[C@H]6CC[C@@H](C5)N6C(=O)c5nnc(C)[nH]5)nc34)cn2)cc1` [Compound 3.34, ((1R,3s,5S)-3-(7-amino-3-(6-(4-methoxyphenyl)pyridin-3-yl)-6-(methylsulfonyl)pyrazolo[1,5-a]pyrimidin-5-yl)-8-azabicyclo[3.2.1]octan-8-yl)(5-methyl-4H-1,2,4-triazol-3-yl)methanone], the pIC50 is 7.00 to 9.00 in experiment [1] (PC-3, Table 3-1, PC3 cells) and 7.00 to 9.00 in experiment [2] (PC-3, Table 3-1, PC3 cells).
In the case of `NC(=O)N1[C@@H]2CC[C@H]1C[C@H](c1nc3c(-c4ccc(-c5ncc[nH]5)nc4)cnn3c(N)c1C1CC1)C2` [Compound 6.31, (1R,3s,5S)-3-(3-(6-(1H-imidazol-2-yl)pyridin-3-yl)-7-amino-6-cyclopropylpyrazolo [1,5-a]pyrimidin-5-yl)-8-azabicyclo[3.2.1]octane-8-carboxamide], the pIC50 was 7.00 to 9.00 in experiment [1] (PC-3, Table 6-1, PC3 cells) and 7.00 to 9.00 in experiment [2] (PC-3, Table 6-1, PC3 cells).
Turning to `CC(=O)c1c([C@@H]2C[C@H]3CC[C@@H](C2)N3C(=O)c2nnc[nH]2)nc2c(-c3cccnc3)cnn2c1N` [Compound 1.1.80, 1-(5-((1R,3s,5S)-8-(4H-1,2,4-triazole-3-carbonyl)-8-azabicyclo[3.2.1]octan-3-yl)-7-amino-3-(pyridin-3-yl)pyrazolo[1,5-a]pyrimidin-6-yl)ethanone], the pIC50 in experiment [1] (setting [3]) and in experiment [2] (setting [3]) was 6.00 to 7.00 each time.
Regarding `Nc1c(C2CC2)c([C@@H]2C[C@H]3CC[C@@H](C2)N3C(=O)c2nnc[nH]2)nc2c(-c3cnn(-c4ccccc4)c3)cnn12` [Compound 4.26, ((1R,3s,5S)-3-(7-amino-6-cyclopropyl-3-(1-phenyl-1H-pyrazol-4-yl)pyrazolo[1,5-a]pyrimidin-5-yl)-8-azabicyclo[3.2.1]octan-8-yl)(4H-1,2,4-triazol-3-yl)methanone], the pIC50 is 6.00 to 7.00 in experiment [1] (setting [3]) and 7.00 to 9.00 in experiment [2] (setting [3]).
As for `CC(=O)c1c([C@@H]2C[C@H]3CC[C@@H](C2)N3C(=O)c2nnc[nH]2)nc2c(-c3ccc(-c4nccs4)nc3)cnn2c1N` [Compound 1.1.37, 1-(5-((1R,3s,5S)-8-(4H-1,2,4-triazole-3-carbonyl)-8-azabicyclo[3.2.1]octan-3-yl)-7-amino-3-(6-(thiazol-2-yl)pyridin-3-yl)pyrazolo[1,5-a]pyrimidin-6-yl)ethanone], the pIC50 in experiment [1] (setting [3]) and in experiment [2] (setting [3]) was 7.00 to 9.00 each time.
For the compound `CCOc1ccc(-c2ccc(-c3cnn4c(N)c(S(C)(=O)=O)c([C@@H]5C[C@H]6CC[C@@H](C5)N6C(=O)c5nnc[nH]5)nc34)cn2)cc1` [Compound 3.60, ((1R,3s,5S)-3-(7-amino-3-(6-(4-ethoxyphenyl)pyridin-3-yl)-6-(methylsulfonyl)pyrazolo[1,5-a]pyrimidin-5-yl)-8-azabicyclo[3.2.1]octan-8-yl)(4H-1,2,4-triazol-3-yl)methanone], the pIC50 is 7.00 to 9.00 in experiment [1] (PC-3, Table 3-1, PC3 cells) and 7.00 to 9.00 in experiment [2] (PC-3, Table 3-1, PC3 cells).
Take `Nc1c(C2CC2)c([C@@H]2C[C@H]3CC[C@@H](C2)N3C(=O)c2nnc[nH]2)nc2c(-c3cnc4c(c3)OCc3cn[nH]c3-4)cnn12` [Compound 8.55]: the pIC50 in experiment [1] (PC-3, PC3 cells) was 5.00 to 6.00; in experiment [2] (PC-3, PC3 cells), 5.00 to 6.00.
With `CC(=O)c1c(C2CC3CCC(C2)N3C(=O)c2nnc(C)[nH]2)nc2c(-c3ccc(-c4ccccc4)nc3)cnn2c1N` [Compound 1.1.22, 1-(7-amino-5-((1R,3s,5S)-8-(3-methyl-1H-1,2,4-triazole-5-carbonyl)-8-azabicyclo[3.2.1]octan-3-yl)-3-(6-phenylpyridin-3-yl)pyrazolo[1,5-a]pyrimidin-6-yl)ethanone], the pIC50 in experiment [1] (setting [3]) and in experiment [2] (setting [3]) was 7.00 to 9.00 in each case.
As to `CS(=O)(=O)c1c([C@@H]2C[C@H]3CC[C@@H](C2)N3/C(N)=N/C#N)nc2c(-c3ccc(-c4ccccc4)nc3)cnn2c1N` [Compound 8.87, (1R,3s,5S,E)-3-(7-amino-6-(methylsulfonyl)-3-(6-phenylpyridin-3-yl)pyrazolo[1,5-a]pyrimidin-5-yl)-N′-cyano-8-azabicyclo[3.2.1]octane-8-carboximidamide], the pIC50 is 6.00 to 7.00 in experiment [1] (PC-3, PC3 cells) and 7.00 to 9.00 in experiment [2] (PC-3, PC3 cells).
Turning to `CC(=O)c1c([C@@H]2C[C@H]3CC[C@@H](C2)N3C(=O)CO)nc2c(-c3ccc(-c4nn(C)cc4F)nc3)cnn2c1N` [Compound 1.1.94, 1-((1R,3s,5S)-3-(6-acetyl-7-amino-3-(6-(4-fluoro-1-methyl-1H-pyrazol-3-yl)pyridin-3-yl)pyrazolo[1,5-a]pyrimidin-5-yl)-8-azabicyclo[3.2.1]octan-8-yl)-2-hydroxyethanone], the pIC50 in experiment [1] (setting [3]) and in experiment [2] (setting [3]) was 6.00 to 7.00 each time.
On to `CC(=O)c1c(N2C3CCC2CN(C(=O)[C@@H](C)O)C3)nc2c(-c3ccc(-c4ccccc4)nc3)cnn2c1N` [Compound 8.6, (2R)-1-(8-(6-acetyl-7-amino-3-(6-phenylpyridin-3-yl)pyrazolo[1,5-a]pyrimidin-5-yl)-3,8-diazabicyclo[3.2.1]octan-3-yl)-2-hydroxypropan-1-one], for which the pIC50 in experiment [1] (PC-3, PC3 cells) is 5.00 to 6.00; in experiment [2] (PC-3, PC3 cells), 6.00 to 7.00.
Turning to `Cc1nc(-c2ccc(-c3cnn4c(N)c(S(C)(=O)=O)c([C@@H]5C[C@H]6CC[C@@H](C5)N6C(=O)c5cn[nH]n5)nc34)cn2)cs1` [Compound 3.201, ((1R,3s,5S)-3-(7-amino-6-(methylsulfonyl)-3-(6-(2-methylthiazol-4-yl)pyridin-3-yl)pyrazolo[1,5-a]pyrimidin-5-yl)-8-azabicyclo[3.2.1]octan-8-yl)(2H-1,2,3-triazol-4-yl)methanone], the pIC50 in experiment [1] (PC-3, Table 3-1, PC3 cells) was 5.00 to 6.00; in experiment [2] (PC-3, Table 3-1, PC3 cells), 6.00 to 7.00.
For the compound `CC(=O)c1c([C@@H]2C[C@H]3CC[C@@H](C2)N3C(=O)c2nnc[nH]2)nc2c(-c3ccc(-c4cnn(C)c4)nc3)cnn2c1N` [Compound 1.1.149, 1-(5-((1R,3s,5S)-8-(4H-1,2,4-triazole-3-carbonyl)-8-azabicyclo[3.2.1]octan-3-yl)-7-amino-3-(6-(1-methyl-1H-pyrazol-4-yl)pyridin-3-yl)pyrazolo[1,5-a]pyrimidin-6-yl)ethanone], the pIC50 in experiment [1] (setting [3]) and in experiment [2] (setting [3]) was 7.00 to 9.00 in each case.
With `CC(=O)c1c([C@@H]2C[C@H]3CC[C@@H](C2)N3C(=O)c2nnc[nH]2)nc2c(-c3ccc(-c4ncc[nH]4)cc3)cnn2c1N` [Compound 6.43, 1-(3-(4-(1H-imidazol-2-yl)phenyl)-5-((1R,3s,5S)-8-(4H-1,2,4-triazole-3-carbonyl)-8-azabicyclo[3.2.1]octan-3-yl)-7-aminopyrazolo[1,5-a]pyrimidin-6-yl)ethanone], the pIC50 in experiment [1] (PC-3, Table 6-1, PC3 cells) was 7.00 to 9.00; in experiment [2] (PC-3, Table 6-1, PC3 cells), 7.00 to 9.00.
Turning to `CC(=O)c1c([C@@H]2C[C@H]3CC[C@@H](C2)N3C(=O)c2cc[nH]c2)nc2c(-c3ccc(-c4ncc[nH]4)nc3)cnn2c1N` [Compound 6.11, 1-(3-(6-(1H-imidazol-2-yl)pyridin-3-yl)-5-((1R,3s,5S)-8-(1H-pyrrole-3-carbonyl)-8-azabicyclo[3.2.1]octan-3-yl)-7-aminopyrazolo[1,5-a]pyrimidin-6-yl)ethanone], the pIC50 was 7.00 to 9.00 in experiment [1] (PC-3, Table 6-1, PC3 cells) and 7.00 to 9.00 in experiment [2] (PC-3, Table 6-1, PC3 cells).
Consider `CC(=O)c1c([C@@H]2C[C@H]3CC[C@@H](C2)N3C(=O)[C@H](C)O)nc2c(-c3ccc(-c4ccccc4)nc3)cnn2c1N` [Compound 1.1.8, (S)-1-((1R,3R,5S)-3-(6-acetyl-7-amino-3-(6-phenylpyridin-3-yl)pyrazolo[1,5-a]pyrimidin-5-yl)-8-azabicyclo[3.2.1]octan-8-yl)-2-hydroxypropan-1-one], for which the values for the pIC50 in experiment [1] (setting [3]) and in experiment [2] (setting [3]) were 6.00 to 7.00 and 7.00 to 9.00, respectively.
Regarding `CC(=O)c1c([C@@H]2C[C@H]3CC[C@@H](C2)N3C(=O)[C@@H](C)O)nc2c(-c3ccc(-c4ccc(F)cc4F)nc3)cnn2c1N` [Compound 1.1.168, (R)-1-((1R,3S,5S)-3-(6-acetyl-7-amino-3-(6-(2,4-difluorophenyl)pyridin-3-yl)pyrazolo[1,5-a]pyrimidin-5-yl)-8-azabicyclo[3.2.1]octan-8-yl)-2-hydroxypropan-1-one], the pIC50 in experiment [1] (setting [3]) and in experiment [2] (setting [3]) was 6.00 to 7.00 in each case.

For the origin of these results see patent publication US9227971B2, “Pyrazolo[1,5-a]pyrimidine compounds as mTOR inhibitors” (Merck Sharp & Dohme Corp., priority 2010, dated 2016).
